Data reported in PubChem BioAssay (NCI).
Several values for one entry are separate records, joined by “and”; a condition that tells them apart may be missing. Equal values may be shown once.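 Assay format: 96-well plates, 48-hour exposure. GI50 marks 50% less growth. TGI is the concentration that stops growth completely.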

Experiments:
Experiment in all cases: growth of human tumour cells (NCI), 48 h
T-47D breast = test system: T-47D breast
COLO 205 colon = test system: COLO 205 colon
ACHN renal = test system: ACHN renal
HT29 colon = test system: HT29 colon
TK-10 renal = test system: TK-10 renal
KM12 colon = test system: KM12 colon
BT-549 breast = test system: BT-549 breast
NCI-H226 lung = test system: NCI-H226 lung
UACC-257 melanoma = test system: UACC-257 melanoma
CCRF-CEM leukemia = test system: CCRF-CEM leukemia

SMILES	GI50 (T-47D breast)	TGI (T-47D breast)	GI50 (COLO 205 colon)	TGI (COLO 205 colon)	GI50 (ACHN renal)	TGI (ACHN renal)	GI50 (HT29 colon)	TGI (HT29 colon)	GI50 (TK-10 renal)	TGI (TK-10 renal)	GI50 (KM12 colon)	TGI (KM12 colon)	GI50 (BT-549 breast)	TGI (BT-549 breast)	GI50 (NCI-H226 lung)	TGI (NCI-H226 lung)	GI50 (UACC-257 melanoma)	TGI (UACC-257 melanoma)	TGI (CCRF-CEM leukemia)	GI50 (CCRF-CEM leukemia)
COc1ccc(-n2c3c(c4c(CN(C)C)c(O)c(C)cc42)CCc2ccccc2C3=O)cc1	> 100 µM	> 100 µM	> 100 µM	> 100 µM	47 µM	> 100 µM	> 100 µM	> 100 µM	47.2 µM	> 100 µM	21.1 µM	63.9 µM	14.4 µM	> 100 µM	28.3 µM	> 100 µM	78.1 µM	> 100 µM	–	–
CC1=CC2CC(C)C1(C)CCc1ccoc12 (stereo not given)	–	–	–	> 100 µM	–	> 100 µM	–	> 100 µM	–	> 100 µM	–	> 100 µM	–	–	–	–	–	> 100 µM	> 100 µM	–
CCOC(=O)C(=O)Nc1ccc(Cl)c(C(F)(F)F)c1	–	–	–	> 100 µM	–	> 100 µM	–	> 100 µM	–	> 100 µM	–	–	–	–	–	> 100 µM	–	> 100 µM	> 100 µM	–
CC(=O)OC12CC(C)C3(O)C4C=C(C)C(=O)[C@@]4(O)CC(CO)=C[C@H]3C1C2(C)C (stereo not given in full)	–	–	0.522 µM and 0.903 µM	–	> 1000 µM	> 1000 µM	> 1000 µM	> 1000 µM	–	–	> 1000 µM	> 1000 µM	> 1000 µM	> 1000 µM	> 1000 µM	> 1000 µM	> 1000 µM	> 1000 µM	> 1000 µM	–
Cn1c(=O)oc2cc(C3CCC(=O)N3Cc3ccc(Cl)cc3)ccc21 (stereo not given)	–	–	–	> 100 µM	–	> 100 µM	–	> 100 µM	–	> 100 µM	–	> 100 µM	–	–	–	> 100 µM	–	> 100 µM	> 100 µM	–
CC(=O)NC1=C(NCc2ccc(Cl)cc2)C(=O)c2ccccc2C1=O	–	–	–	11.4 µM	–	6.13 µM	–	> 50 µM	–	15.1 µM	–	> 50 µM	–	–	–	26.1 µM	–	12.4 µM	32.3 µM	–
C=CCN(CC=C)CC(C(C)=O)C(c1ccccc1)c1c(O)c2ccccc2oc1=O (stereo not given)	–	–	–	> 100 µM	–	> 100 µM	–	> 100 µM	–	> 100 µM	–	37.9 µM	–	–	–	> 100 µM	–	> 100 µM	> 100 µM	–
COc1ccccc1NC(=O)C1=C(C)NC(C)=C(C(=O)Nc2ccccc2OC)C1c1cccc2c1OCO2	–	–	–	> 100 µM	–	> 100 µM	–	> 100 µM	–	> 100 µM	–	> 100 µM	–	–	–	> 100 µM	–	> 100 µM	> 100 µM	–
O=C(O)c1ccc(C2C3C=CC(C3)C2[N+](=O)[O-])cc1 (stereo not given)	–	–	–	> 100 µM	–	–	–	> 100 µM	–	> 100 µM	–	> 100 µM	–	–	–	> 100 µM	–	> 100 µM	> 100 µM	–
Cc1cc2c(cc1Br)C1(C)CCC(C)C1(C)O2 (stereo not given)	–	–	–	29.8 µM	–	> 100 µM	–	> 100 µM	–	> 100 µM	–	> 100 µM	–	–	–	50 µM	–	98.8 µM	56.1 µM	–
CCC[CH2][Sn]1([CH2]CCC)[O]C(=O)CN=Cc2ccccc2[O]1	–	–	0.298 µM	1.27 µM	0.323 µM	1.1 µM	1.08 µM	2.34 µM	0.292 µM	0.729 µM	0.695 µM	2.18 µM	–	–	–	–	0.164 µM	0.419 µM	–	–
C[Si]12OCCCN(CCO1)CCO2	–	–	–	> 100 µM	–	> 100 µM	–	> 100 µM	–	> 100 µM	–	> 100 µM	–	–	–	–	–	> 100 µM	> 100 µM	–
O=C1OCC2=C1C(c1cccc(C(F)(F)F)c1)c1cc3c(cc1N2CCO)CCC3 (stereo not given)	–	–	0.163 µM	1.59 µM	0.441 µM	9.23 µM	0.167 µM	5.27 µM	0.359 µM	10.9 µM	0.157 µM	6.37 µM	0.219 µM	5.32 µM	1 µM	9.43 µM	6.5 µM	15.2 µM	45.4 µM	0.217 µM
COc1ccc(-c2nc3sc4c(c3c(=O)[nH]2)CCCC4)c2ccccc12	4.82 µM and 2.85 µM	> 100 µM	–	–	0.755 µM	–	–	–	3.53 µM	–	–	> 100 µM	–	6.08 µM and 3.47 µM	1.41 µM	–	1.56 µM and 4.95 µM	> 100 µM	> 100 µM	–
COc1ccc2[nH]cc(-c3nc(-c4c[nH]c5ccncc45)cs3)c2c1	–	–	–	–	1.66 µM	3.14 µM	2.23 µM	4.87 µM	2.59 µM	4.64 µM	1.76 µM	3.75 µM	8.96 µM	21.3 µM	2.36 µM	6.58 µM	1.93 µM	3.51 µM	7.18 µM	2.45 µM
COC(=O)C1=Cc2c(cc(OC)c(OC)c2OC)[C@H](c2ccc(OC)c(OC)c2OC)C1C(=O)OC (stereo not given in full)	–	–	–	> 100 µM	–	> 100 µM	–	> 100 µM	–	> 100 µM	–	> 100 µM	–	–	–	> 100 µM	–	> 100 µM	> 100 µM	–
CNC(=O)OCc1[nH]ccc2c(C)c3nc4ccc(OC)cc4c3cc12	–	–	–	> 28.1 µM	–	18 µM	–	> 100 µM	–	> 79.1 µM	–	> 23.9 µM	–	–	–	18.7 µM	–	> 100 µM	13.6 µM	–
O=C(NC1(C(=O)O)CC1c1ccccc1)c1ccccc1 (stereo not given)	–	> 100 µM	–	> 100 µM	–	> 100 µM	–	> 100 µM	–	> 100 µM	–	> 100 µM	–	> 100 µM	–	> 100 µM	–	> 100 µM	–	–
CN(C)S(=O)(=O)c1ccc(Nc2ccc(O)c3c2C(=O)c2c([N+](=O)[O-])ccc(O)c2C3=O)cc1	–	> 100 µM	–	> 100 µM	–	> 100 µM	–	> 100 µM	–	> 100 µM	–	> 100 µM	–	> 100 µM	–	–	–	> 100 µM	44.9 µM	–
NC(=O)NCCSC1CCCCC1O (stereo not given)	–	> 100 µM	–	> 100 µM	–	> 100 µM	–	> 100 µM	–	> 100 µM	–	> 100 µM	–	> 100 µM	–	> 100 µM	–	> 100 µM	–	–
NC1=NC(c2ccc(F)cc2)C2=C(N1)c1ccc3ccccc3c1OCC2 (stereo not given)	13.5 µM	> 100 µM	–	–	29.7 µM	> 100 µM	4.96 µM	> 100 µM	14.5 µM	> 100 µM	4.45 µM	> 100 µM	33.6 µM	> 100 µM	9.57 µM	57.4 µM	34.2 µM	> 100 µM	–	–
